Test results reported in patent publication US20170273922A1, “UREA AND BIS-UREA BASED COMPOUNDS AND ANALOGUES THEREOF USEFUL IN THE TREATMENT OF ANDROGEN RECEPTOR MEDIATED DISEASES OR DISORDERS” (THE ROYAL INSTITUTION FOR THE ADVACEMENT OF LEARNING/MCGILL …, priority 2014, published 2017).
“Also recorded” adds a separate entry of the source.

Key:
[1] = tested on: PSA expression in LNCaP cells; experiment: Western blot of PSA expression in LNCaP cells; type: cell-based; settings: 24 h; for suppression of PSA expression in LNCaP cells (FIG. 19C): whole medium
Procedure: FIG. 11: A) Compounds 562 and 746 suppressed DHT-induced AR activation in LNCaP cells which endogenously express the T877A mutant; B) Western blot analysis indicated compound 746 at 2.5 μM suppressed DHT-induced expression of the PSA in LNCaP cells. […] ENZ, enzalutamide; BIC, bicalutamide; EPI, EPI-001.
(§1) Experiments were in duplicate and repeated three times. […] LNCaP cells in whole medium were exposed to DMSO vehicle control or compounds for 24 h.

22Rv1 cells = experiment: Western blot analysis of apoptosis in 22Rv1 cells; type: cell-based; settings: phenol red-free medium+10% CS-FBS, 24 h
Description: A) The 22Rv1 cells express substantial level of AR-Vs, which include AR-V7 and other AR variants lacking the LBD. The ARs were probed by N-terminal directed AR antibody (N20, Santa Cruz); B) The 22Rv1 cells were androgen-starved (in phenol red-free medium+10% CS-FBS) for 3 days to ensure the full-length AR expressed in 22Rv1 are not activated. The 22Rv1 cells were subsequently co-transfected with PSA-luc and pRL-TK plasmids. […] Cells in phenol red-free medium+10% CS-FBS were exposed to DMSO or compounds for 24 h and harvested for Western blot analysis.

DU145 cells = experiment: MTT assay (cytotoxicity), DU145 cells; type: cell-based; settings: DU145 cells, 72 h, Table 4.2
In short: (§2)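 Following overnight attachment at 6-7×10^3 cells per well, cultures receive compound for 72 h in serum-containing (10% FBS) RPMI 1640. MTT then quantifies surviving cells, with each experiment done in triplicate and repeated at least twice.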

LNCaP cells = experiment: Western blot analysis of apoptosis in LNCaP cells; type: cell-based; settings: whole medium, 24 h
Procedure: as §1

[2] = MTT assay (cytotoxicity), 22Rv1 cells; type: cell-based; settings: human, 22Rv1 cells
In short: as §2

VP16-AR(507-919) = VP16-AR(507-919) (NTD-deleted) PSA-luc reporter assay; settings: 10 nM DHT, 24 h; PC3 or HEK293 cells
[3] = molecular target: T1, H874Y mutant of full-length AR in 22Rv1 cells (Homo sapiens, UniProt P10275, H875Y); experiment: PSA-luc reporter assay in 22Rv1 cells, DHT-induced (endogenous H874Y full-length AR); type: cell-based
T1 sequence (P10275 1-920 H875Y): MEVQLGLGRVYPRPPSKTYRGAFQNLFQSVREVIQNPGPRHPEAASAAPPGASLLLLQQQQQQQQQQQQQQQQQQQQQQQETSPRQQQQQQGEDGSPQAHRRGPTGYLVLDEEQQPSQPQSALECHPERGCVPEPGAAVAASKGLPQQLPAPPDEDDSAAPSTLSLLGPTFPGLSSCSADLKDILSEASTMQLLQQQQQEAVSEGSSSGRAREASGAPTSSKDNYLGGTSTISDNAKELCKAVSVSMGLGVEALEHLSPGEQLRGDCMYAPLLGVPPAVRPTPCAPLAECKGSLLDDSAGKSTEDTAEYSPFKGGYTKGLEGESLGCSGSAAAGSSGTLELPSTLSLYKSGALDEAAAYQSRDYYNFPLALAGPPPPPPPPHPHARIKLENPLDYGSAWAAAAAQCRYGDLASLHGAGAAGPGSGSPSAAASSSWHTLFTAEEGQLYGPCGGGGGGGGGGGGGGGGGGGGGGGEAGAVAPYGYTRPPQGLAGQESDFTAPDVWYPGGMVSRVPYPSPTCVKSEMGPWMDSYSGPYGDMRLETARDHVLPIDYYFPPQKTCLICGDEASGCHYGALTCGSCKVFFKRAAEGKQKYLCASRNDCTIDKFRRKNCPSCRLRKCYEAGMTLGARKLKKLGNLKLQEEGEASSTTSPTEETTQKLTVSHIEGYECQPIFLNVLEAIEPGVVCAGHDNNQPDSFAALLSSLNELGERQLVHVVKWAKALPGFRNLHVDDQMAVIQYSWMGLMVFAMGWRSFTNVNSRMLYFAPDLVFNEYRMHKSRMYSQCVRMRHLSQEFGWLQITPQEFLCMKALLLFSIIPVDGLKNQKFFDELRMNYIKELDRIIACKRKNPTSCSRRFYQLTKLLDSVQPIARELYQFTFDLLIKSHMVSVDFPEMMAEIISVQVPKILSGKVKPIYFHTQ

full-length IRF3 = molecular target: T2, full-length IRF3 (Homo sapiens, UniProt Q14653); experiment: Full-length IRF3 ISRE-luc reporter assay; type: cell-based; settings: PC3 cells, 24 h
T2 construct: co-transfected with full-length IRF3 or IRF3DBD-AR(1-547) expressing plasmids; expressed in transfected cells
T2 sequence (Q14653 1-427): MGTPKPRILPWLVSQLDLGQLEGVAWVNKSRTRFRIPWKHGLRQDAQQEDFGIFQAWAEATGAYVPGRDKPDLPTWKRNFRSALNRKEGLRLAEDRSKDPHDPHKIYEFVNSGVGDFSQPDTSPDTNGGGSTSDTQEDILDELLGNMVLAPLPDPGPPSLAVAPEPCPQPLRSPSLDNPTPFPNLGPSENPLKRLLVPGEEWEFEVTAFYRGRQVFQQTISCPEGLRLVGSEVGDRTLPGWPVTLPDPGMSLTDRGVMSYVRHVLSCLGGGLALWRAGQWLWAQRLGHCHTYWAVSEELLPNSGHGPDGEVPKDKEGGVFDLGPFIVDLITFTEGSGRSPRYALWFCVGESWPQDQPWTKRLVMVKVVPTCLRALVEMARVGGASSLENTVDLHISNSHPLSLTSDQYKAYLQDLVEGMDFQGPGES
Description: For all of the others, cells were co-transfected with full-length IRF3 or IRF3DBD-AR(1-547) expressing plasmids and with the ISRE-luc reporter and pRL-TK plasmids. […] As IRF3DBD-AR(1-547) contains the DBD of IRF3, ISRE-luc reporter instead of the PSA-luc reporter was used in our assays.
HEK293 cells were co-transfected with IRF3DBD(1-133) or IRF3DBD-AR(1-547) or IRF3DBD-AR(181-547) or full-length IRF3 expressing plasmids and with the ISRE-luc reporter and the Renilla luciferase pRL-TK plasmids.
Here, IRF3-AR(1-547) is the fusion of IRF3 DBD with the AR NTD (1-547). […] The plasmids expressing IRF3-AR(1-547) (A) or wild-type IRF3 (B) or IRF3 DBD (for NT) as well as ISRE-luc and pRL-TK were transiently transfected into PC3 cells. […] Bic, bicalutamide; EPI, EPI-001.

SMILES	suppression of PSA expression in LNCaP cells (FIG. 19C) [1]	apoptosis in 22Rv1 cells (22Rv1 cells)	IC50 (DU145 cells) [µM]	apoptosis in LNCaP cells (LNCaP cells)	suppression of PSA expression in LNCaP cells (FIG. 11B) ([1]; 10 nM DHT)	inhibition of DHT-induced activation of VP16-AR(507-919) (PSA-luc) (VP16-AR(507-919))	inhibition of DHT-induced AR activation in 22Rv1 cells (PSA-luc) ([3]; 10 nM DHT, 24 h)	activity against wild-type IRF3 (ISRE-luc) (full-length IRF3)	further results
N#Cc1ccc(NC(=O)Nc2cccc(C(F)(F)F)c2)cc1C(F)(F)F [Compound 467]	dose-dependently suppressed	induced apoptosis	1.6	induced apoptosis	–	–	–	–	–
O=C(Nc1ccc(Br)nc1)Nc1cc(C(F)(F)F)cc(C(F)(F)F)c1 [Compound 566]	–	–	–	–	–	–	–	–	IC50 at 72 h ([2]; 72 h, Table 4.1): 1.1 µM
O=C(N/C=C/c1cccc(C(F)(F)F)c1)Nc1ccncn1 [Compound 562]	–	–	–	–	suppressed	inactive	good activity	inactive	–
O=C(Nc1cccc(C(F)(F)F)c1)Nc1ccc(NC(=O)c2ccccc2F)c(C(F)(F)F)c1 [Compound 746]	–	–	–	–	suppressed	inactive	suppressed; also recorded: good activity	inactive	suppression of DHT-induced expression of the PSA in LNCaP cells ([1]; 2.5 μM, 10 nM DHT): suppressed; inhibition of DHT-induced AR activation in 22Rv1 cells (PSA-luc) ([3]; 1 μM): showed inhibitory activity; IC50 at 72 h ([2]; 72 h treatment, Table 6.1): 2.2 µM
O=C(Nc1cccc(C(F)(F)F)c1)Nc1ccc([N+](=O)[O-])c(C(F)(F)F)c1 [Compound 442]	dose-dependently suppressed	induced apoptosis	1.5	induced apoptosis	–	–	–	–	–
N#Cc1ccc(NC(=O)Nc2cccc(C(F)(F)F)c2)cc1Cl [Compound 492]	–	–	5.1	–	–	–	–	–	–
